Converted amounts (≈) assume the structure as drawn.
What was measured:
Assay type in all cases: cell-based
[1] = test system: Escherichia coli, Proteus vulgaris, Pseudomonas aeruginosas; experiment: MIC by broth microdilution (NCCLS) of IsoB0 and reference compounds (Table 44), non-gram-positive bacterial strains
Experimental: (§1) MICs were determined by the broth microdilution methodology following the standard NCCLS procedure, with or without 30% bovine serum, using bacterial inocula of approximately 5×10^5 CFU/mL. Tests were read after 20-24 h incubation at 35° C.

[2] = test system: Candida albicans SKF 2270; experiment: MIC by broth microdilution (NCCLS) (Tables 42, 44)
[3] = test system: panel of gram-positive bacteria; experiment: MIC by broth microdilution (NCCLS) of IsoB0 and reference compounds (Table 44)
Experimental: Müller Hinton broth (Difco Laboratories, Detroit, Mich., USA) adjusted with CaCl2 and MgCl2 to a final concentrations of 20 mg/L and 10 mg/L respectively.
The microorganisms used are reference standard strains from the American Type Culture Collection (ATCC, Rockville, USA), Smith Kline and French Laboratories (SKF) and the Upjohn Company (UC, Kalamazoo, Mich., USA).
as §1

gram positive bacteria = experiment: MIC by broth microdilution (NCCLS), with or without 30% bovine serum (Table 42)
Experimental: (§2) Before dissolution, each sample was analyzed by HPLC and quantified.
(§3) The microorganisms used were reference strains obtained from the American Type Culture Collection (ATCC) (Rockville, Md.), SmithKline and French Laboratories (SKF), and the Upjohn Company (UC) (Kalamazoo, Mich.).
(§4) MICs were determined by the broth microdilution methodology following the standard NCCLS procedure (NCCLS Document M7-A6, Vol. 23, No. 2, “Methods for dilution antimicrobial susceptibility tests for bacteria that grow aerobically.” Approved Guideline. January 2003, which can be herein incorporated by reference in its entirety), with or without 30% adult bovine serum (BS) (PAA Laboratories GMBH, Haidmannweg Pasching Austria), using bacterial innocula at approximately 5×10^5 CFU/ml. The media employed included cation-adjusted Müller Hinton broth (Difco Laboratories, Detroit, Mich.) that was used that was adjusted with CaCl2 and MgCl2 to a final concentration of 20 mg/L and 10 mg/L, respectively. Tests were read following 20-24 hours of incubation at 35° C.

gram-negative bacteria = experiment: MIC by broth microdilution (NCCLS) (Table 42)
Experimental: as §2, §3, §4

[4] = Pseudomonas aeruginosas ATCC 10145
[5] = Candida albicans SKF2270 (Table 44)
[6] = E. faecalis ATCC29212 ref. strain
[7] = Enterococcus faecalis ATCC 7080
[8] = S. aureus ATCC 29213 ref. strain
[9] = Staphylococcus aureus Smith ATCC 19636
[10] = Streptococcus pyogenes SKF13400
[11] = Streptococcus pyrogenes SKF 13400
[12] = Candida albicans SKF 2270 (Table 42)

Structure (SMILES)	MIC ([1]; E. coli ATCC25922 ref. strain)	MIC ([1]; Escherichia coli SKF 12140)	MIC ([1]; Proteus vulgaris ATCC 881)	MIC [1, 4]	MIC [2, 5]	MIC ([3]; Bacillus subtilis ATCC 6633)	MIC (gram positive bacteria; Bacillus subtilis ATCC 6633)	MIC (gram positive bacteria; [6])	MIC (gram positive bacteria; [7])	MIC (gram positive bacteria; [8])	MIC (gram positive bacteria; S. aureus Smith + 30% BS)	MIC (gram positive bacteria; S. epidermidis ATCC 12228)	MIC (gram positive bacteria; S. pneumoniae Felton UC41)	MIC (gram positive bacteria; [9])	MIC (gram positive bacteria; [11])	MIC [2, 12]	MIC (gram-negative bacteria; E. coli ATCC25922 ref. strain)	MIC (gram-negative bacteria; Escherichia coli SKF 12140)	MIC (gram-negative bacteria; Proteus vulgaris ATCC 881)	MIC (gram-negative bacteria; [4])	also measured
C[C@@H]1[C@H](O)[C@@H](C)/C=C/C=C/C=C/C=C/C=C/C=C/C=C/[C@H](O[C@@H]2O[C@H](C)[C@@H](O)[C@H](N)[C@@H]2O)C[C@@H]2O[C@](O)(C[C@@H](O)C[C@@H](O)[C@H](O)CC[C@@H](O)C[C@@H](O)CC(=O)O[C@H]1C)C[C@H](O)[C@H]2C(=O)O [Amph. B]	>64 µg/mL	>64 µg/mL	>64 µg/mL	>64 µg/mL	0.125 µg/mL (≈ 0.135 µM)	>64 µg/mL	–	–	–	–	–	–	–	–	–	–	–	–	–	–	MIC [3, 6]: >64 µg/mL; MIC [3, 7]: >64 µg/mL; MIC [3, 8]: >64 µg/mL; MIC ([3]; S. aureus Smith + 30% BS): >64 µg/mL; MIC ([3]; S. epidermidis ATCC 12228): >64 µg/mL; MIC ([3]; S. pneumoniae Felton UC41): >64 µg/mL; MIC [3, 9]: >64 µg/mL; MIC [3, 10]: 32 µg/mL (≈ 34.6 µM)
C[C@@H]1[C@H](O)[C@@H](C)/C=C/C=C/C=C/C=C/C=C/C=C/C=C/[C@H](O[C@@H]2O[C@H](C)[C@@H](O)[C@H](N)[C@@H]2O)C[C@@H]2O[C@](O)(C[C@@H](O)C[C@@H](O)[C@H](O)CC[C@@H](O)C[C@@H](O)CC(=O)O[C@H]1C)C[C@H](O)[C@H]2C(=O)O [Amphotericin B]	–	–	–	–	–	–	>64 µg/mL	>64 µg/mL	>64 µg/mL	>64 µg/mL	>64 µg/mL	>64 µg/mL	>64 µg/mL	>64 µg/mL	32 µg/mL (≈ 34.6 µM)	0.125 µg/mL (≈ 0.135 µM)	>64 µg/mL	>64 µg/mL	>64 µg/mL	>64 µg/mL	–
CN[C@H]1C(=O)N[C@@H]2Cc3ccc(cc3)Oc3cc4cc(c3O[C@@H]3O[C@H](C(=O)O)[C@@H](O)[C@H](O)[C@H]3NC(=O)CCCCCCCC(C)C)Oc3ccc(cc3Cl)[C@@H](O)[C@@H]3NC(=O)[C@H](NC(=O)[C@@H]4NC(=O)[C@@H](NC2=O)c2cc(cc(O)c2Cl)Oc2cc1ccc2O)c1ccc(O)c(c1)-c1c(O[C@H]2O[C@H](CO)[C@@H](O)[C@H](O)[C@@H]2O)cc(O)cc1[C@@H](C(=O)NCCCN(C)C)NC3=O [Composition A0]	–	–	–	–	–	–	≦0.06 mg/L	≦0.06 mg/L	0.125 µg/mL (≈ 0.0693 µM)	0.125 µg/mL (≈ 0.0693 µM)	1 µg/mL	0.125 µg/mL (≈ 0.0693 µM)	0.125 µg/mL (≈ 0.0693 µM)	0.125 µg/mL (≈ 0.0693 µM)	0.015 µg/mL (≈ 0.00832 µM)	>64 µg/mL	>64 µg/mL	>64 µg/mL	>64 µg/mL	>64 µg/mL	–
CN[C@H]1C(=O)N[C@@H]2Cc3ccc(cc3)Oc3cc4cc(c3O[C@@H]3O[C@H](C(=O)O)[C@@H](O)[C@H](O)[C@H]3NC(=O)CCCCCCCCC(C)C)Oc3ccc(cc3Cl)[C@@H](O)[C@@H]3NC(=O)[C@H](NC(=O)[C@@H]4NC(=O)[C@@H](NC2=O)c2cc(cc(O)c2Cl)Oc2cc1ccc2O)c1ccc(O)c(c1)-c1c(O[C@H]2O[C@H](CO)[C@@H](O)[C@H](O)[C@@H]2O)cc(O)cc1[C@@H](C(=O)NCCCN(C)C)NC3=O [Composition B0, ristomycin A aglycone, 5,31-dichloro-38-de(methoxycarbonyl)-7-demethyl-19-deoxy-56-O-(2-deoxy-2-((10-methyl-1-oxoundecyl)amino)-beta-D-glucopyranuronosyl)-38-(((3-(dimethylamino)propyl)amino)-carbonyl)-42-O-alpha-D-mannopyranosyl-N^15-methyl-]	–	–	–	–	–	–	≦0.06 mg/L	0.125 µg/mL (≈ 0.0688 µM)	0.125 µg/mL (≈ 0.0688 µM)	0.125 µg/mL (≈ 0.0688 µM)	2 µg/mL	≦0.06 mg/L	≦0.06 mg/L	0.25 µg/mL (≈ 0.138 µM)	≦0.06 mg/L	>64 µg/mL	>64 µg/mL	>64 µg/mL	>64 µg/mL	>64 µg/mL	–
CCCCCCCCCCCC(=O)N[C@H]1[C@H](Oc2c3cc4cc2Oc2ccc(cc2Cl)[C@@H](O)[C@@H]2NC(=O)[C@H](NC(=O)[C@@H]4NC(=O)[C@H]4NC(=O)[C@@H](Cc5ccc(cc5)O3)NC(=O)[C@H](NC)c3ccc(O)c(c3)Oc3cc(O)c(Cl)c4c3)c3ccc(O)c(c3)-c3c(O[C@H]4O[C@H](CO)[C@@H](O)[C@H](O)[C@@H]4O)cc(O)cc3[C@@H](C(=O)NCCCN(C)C)NC2=O)O[C@H](C(=O)O)[C@@H](O)[C@@H]1O [Composition B1]	–	–	–	–	–	–	≦0.06 mg/L	0.125 µg/mL (≈ 0.0688 µM)	0.125 µg/mL (≈ 0.0688 µM)	0.125 µg/mL (≈ 0.0688 µM)	2 µg/mL	≦0.06 mg/L	≦0.06 mg/L	0.125 µg/mL (≈ 0.0688 µM)	≦0.06 mg/L	>64 µg/mL	>64 µg/mL	>64 µg/mL	>64 µg/mL	>64 µg/mL	–
CC(C)CCCCCCCCC(=O)N[C@H]1[C@H](Oc2c3cc4cc2Oc2ccc(cc2Cl)[C@@H](O)[C@@H]2NC(=O)[C@H](NC(=O)[C@@H]4NC(=O)[C@H]4NC(=O)[C@@H](Cc5ccc(cc5)O3)NC(=O)[C@H](N(C)C)c3ccc(O)c(c3)Oc3cc(O)c(Cl)c4c3)c3ccc(O)c(c3)-c3c(O[C@H]4O[C@H](CO)[C@@H](O)[C@H](O)[C@@H]4O)cc(O)cc3[C@@H](C(=O)NCCCN(C)C)NC2=O)O[C@H](C(=O)O)[C@@H](O)[C@@H]1O [Composition B2, N^15,N^15-dimethyl dalbavancin B0]	–	–	–	–	–	–	–	–	–	–	–	–	–	–	–	–	–	–	–	–	activity across the range of gram-positive bacteria (gram positive bacteria): comparable to or greater than the activity of B0; MIC range (gram-negative bacteria; representative panel of gram-negative bacteria): 16 to 32 µg/mL
CC1(C)S[C@@H]2[C@H](NC(=O)Cc3ccccc3)C(=O)N2[C@H]1C(=O)O [Pen. G]	>32 µg/mL	>32 µg/mL	>32 µg/mL	>32 µg/mL	>32 µg/mL	≦0.03 mg/L	–	–	–	–	–	–	–	–	–	–	–	–	–	–	MIC [3, 6]: 4 µg/mL (≈ 12 µM); MIC [3, 7]: 32 µg/mL (≈ 95.7 µM); MIC [3, 8]: 8 µg/mL (≈ 23.9 µM); MIC ([3]; S. aureus Smith + 30% BS): 0.06 µg/mL; MIC ([3]; S. epidermidis ATCC 12228): >32 µg/mL; MIC ([3]; S. pneumoniae Felton UC41): ≦0.03 mg/L; MIC [3, 9]: 0.06 µg/mL (≈ 0.179 µM); MIC [3, 10]: ≦0.03 mg/L
CC1(C)S[C@@H]2[C@H](NC(=O)Cc3ccccc3)C(=O)N2[C@H]1C(=O)O [Penicillin G]	–	–	–	–	–	–	≦0.03 mg/L	4 µg/mL (≈ 12 µM)	32 µg/mL (≈ 95.7 µM)	8 µg/mL (≈ 23.9 µM)	0.06 µg/mL	>32 µg/mL	≦0.03 mg/L	0.06 µg/mL (≈ 0.179 µM)	≦0.03 mg/L	>32 µg/mL	>32 µg/mL	>32 µg/mL	>32 µg/mL	>32 µg/mL	–
CN[C@H]1C(=O)N[C@@H]2Cc3ccc(cc3)Oc3cc4cc(c3O[C@@H]3O[C@H](C(=O)O)[C@@H](O)[C@H](O)[C@H]3NC(=O)CCCCCCCCC(C)C)Oc3ccc(cc3Cl)[C@@H](O)[C@@H]3NC(=O)[C@H](NC(=O)[C@@H]4NC(=O)[C@H](NC2=O)c2cc(cc(O)c2Cl)Oc2cc1ccc2O)c1ccc(O)c(c1)-c1c(O[C@H]2O[C@H](CO)[C@@H](O)[C@H](O)[C@@H]2O)cc(O)cc1[C@@H](C(=O)NCCCN(C)C)NC3=O [isoB0]	64 µg/mL (≈ 35.2 µM)	64 µg/mL (≈ 35.2 µM)	>64 µg/mL	>64 µg/mL	>64 µg/mL	≦0.06 mg/L	–	–	–	–	–	–	–	–	–	–	–	–	–	–	activity against a panel of gram-positive bacteria [3]: very similar to dalbavancin; MIC [3, 6]: 0.25 µg/mL (≈ 0.138 µM); MIC [3, 7]: 0.25 µg/mL (≈ 0.138 µM); MIC [3, 8]: 0.25 µg/mL (≈ 0.138 µM); MIC ([3]; S. aureus Smith + 30% BS): 16 µg/mL; MIC ([3]; S. epidermidis ATCC 12228): 0.125 µg/mL (≈ 0.0688 µM); MIC ([3]; S. pneumoniae Felton UC41): 0.125 µg/mL (≈ 0.0688 µM); MIC [3, 9]: 0.5 µg/mL (≈ 0.275 µM); MIC [3, 10]: 0.06 µg/mL (≈ 0.033 µM)

— patent publication US8143212B2 (Vicuron Pharmaceuticals Inc., priority 2002, dated 2012)
